Experimental data from patent US20210122730A1, “GLUCOCORTICOID RECEPTOR MODULATORS” (ORIC Pharmaceuticals, Inc., priority 2017, published 2021).

Target: T1, GR (Homo sapiens, UniProt P04150)
T1 construct: expressed in transfected cells; host or cells: CHO-K1
T1 sequence (P04150 1-777): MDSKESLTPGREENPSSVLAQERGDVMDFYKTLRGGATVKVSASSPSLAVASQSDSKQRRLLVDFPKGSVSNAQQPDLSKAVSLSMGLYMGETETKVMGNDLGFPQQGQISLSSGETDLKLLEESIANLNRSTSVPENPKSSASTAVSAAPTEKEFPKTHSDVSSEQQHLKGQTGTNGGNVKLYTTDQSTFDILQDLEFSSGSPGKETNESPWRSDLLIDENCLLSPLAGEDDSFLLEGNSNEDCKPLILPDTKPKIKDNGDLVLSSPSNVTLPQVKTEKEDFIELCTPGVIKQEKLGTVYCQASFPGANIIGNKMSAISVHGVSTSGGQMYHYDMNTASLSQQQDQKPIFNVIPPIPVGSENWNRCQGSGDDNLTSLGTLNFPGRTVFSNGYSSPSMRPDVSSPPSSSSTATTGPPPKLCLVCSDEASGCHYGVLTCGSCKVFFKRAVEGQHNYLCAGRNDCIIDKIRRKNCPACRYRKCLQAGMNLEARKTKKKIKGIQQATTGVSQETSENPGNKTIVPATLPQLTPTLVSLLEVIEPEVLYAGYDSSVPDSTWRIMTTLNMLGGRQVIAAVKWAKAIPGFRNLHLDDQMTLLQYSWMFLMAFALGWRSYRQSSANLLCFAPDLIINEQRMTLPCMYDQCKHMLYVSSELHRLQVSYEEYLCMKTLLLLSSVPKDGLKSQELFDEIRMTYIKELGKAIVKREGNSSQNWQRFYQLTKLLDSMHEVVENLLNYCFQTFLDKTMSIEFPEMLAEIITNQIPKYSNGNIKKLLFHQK
Test: In Vitro GR Luciferase Reporter Assay (antagonist mode, CHO-K1-GR-MMTV-Luc reporter cells)
Type: cell-based
Conditions: antagonist mode, 10 nM Dexamethasone
In short: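 Antagonist mode: compounds (8 serial 1:5 dilutions) added to GR-MMTV-luciferase CHO-K1 reporter cells co-exposed to 10 nM dexamethasone final, in phenol red-free DMEM plus 10% CSS. After roughly 18-24 h at 37° C, OneGlo luminescence read and IC50 calculated.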

IC50 | SMILES
≤ 100 nM | Cn1cnc(S(=O)(=O)CC2CCC3=Cc4c(cnn4-c4ccc(F)cc4)C[C@]3(C(=O)c3ncc(C(F)(F)F)s3)C2)n1 (stereo partly drawn) [Example 379, ((4aR)-1-(4-fluorophenyl)-6-(((1-methyl-1H-1,2,4-triazol-3-yl)sulfonyl)methyl)-1,4,5,6,7,8-hexahydro-4aH-benzo[f]indazol-4a-yl)(5-(trifluoromethyl)thiazol-2-yl)methanone]
≤ 100 nM | Cn1ccc(S(=O)(=O)N(CCF)[C@H]2CCC3=Cc4c(cnn4-c4ccc(F)cc4)C[C@]3(C(=O)c3cc(C(F)(F)F)ccn3)C2)n1 [Example 380, N-(2-fluoroethyl)-N-((4aS,6S)-1-(4-fluorophenyl)-4a-(4-(trifluoromethyl)picolinoyl)-4,4a,5,6,7,8-hexahydro-1H-benzo[f]indazol-6-yl)-1-methyl-1H-pyrazole-3-sulfonamide]
≤ 100 nM | CO[C@]1(C)C[C@H](N([C@H]2CCC3=Cc4c(cnn4-c4ccc(F)cc4)C[C@]3(C(=O)c3cc(Cl)ccn3)C2)S(=O)(=O)c2ccn(C)n2)C1 [Example 381, N-((4aS,6S)-4a-(4-chloropicolinoyl)-1-(4-fluorophenyl)-4,4a,5,6,7,8-hexahydro-1H-benzo[f]indazol-6-yl)-N-((1s,3R)-3-methoxy-3-methylcyclobutyl)-1-methyl-1H-pyrazole-3-sulfonamide]
≤ 100 nM | Cn1cnc(S(=O)(=O)N(CCF)[C@H]2CCC3=Cc4c(cnn4-c4ccc(F)cc4)C[C@]3(C(=O)c3ncc(C(F)(F)F)s3)C2)n1 [Example 382, N-(2-fluoroethyl)-N-((4aS,6S)-1-(4-fluorophenyl)-4a-(5-(trifluoromethyl)thiazole-2-carbonyl)-4,4a,5,6,7,8-hexahydro-1H-benzo[f]indazol-6-yl)-1-methyl-1H-1,2,4-triazole-3-sulfonamide]
≤ 100 nM | Cn1cnc(S(=O)(=O)N(CC(F)F)[C@H]2CCC3=Cc4c(cnn4-c4ccc(F)cc4)C[C@]3(C(=O)c3ncc(C(F)(F)F)s3)C2)c1 [Example 383, N-(2,2-difluoroethyl)-N-((4aS,6S)-1-(4-fluorophenyl)-4a-(5-(trifluoromethyl)thiazole-2-carbonyl)-4,4a,5,6,7,8-hexahydro-1H-benzo[f]indazol-6-yl)-1-methyl-1H-imidazole-4-sulfonamide]
≤ 100 nM | CO[C@]1(C)C[C@H](N([C@H]2CCC3=Cc4c(cnn4-c4ccc(F)cc4)C[C@]3(C(=O)c3cc(C(F)(F)F)ccn3)C2)S(=O)(=O)c2ccn(C)n2)C1 [Example 384, N-((4aS,6S)-1-(4-fluorophenyl)-4a-(4-(trifluoromethyl)picolinoyl)-4,4a,5,6,7,8-hexahydro-1H-benzo[f]indazol-6-yl)-N-((1s,3R)-3-methoxy-3-methylcyclobutyl)-1-methyl-1H-pyrazole-3-sulfonamide]
≤ 100 nM | Cn1cnc(S(=O)(=O)N(CCF)[C@H]2CCC3=Cc4c(cnn4-c4ccc(F)cc4)C[C@]3(C(=O)c3cc(C(F)(F)F)ccn3)C2)n1 [Example 385, N-(2-fluoroethyl)-N-((4aS,6S)-1-(4-fluorophenyl)-4a-(4-(trifluoromethyl)picolinoyl)-4,4a,5,6,7,8-hexahydro-1H-benzo[f]indazol-6-yl)-1-methyl-1H-1,2,4-triazole-3-sulfonamide]
≤ 100 nM | O=C(c1ncc(C(F)(F)F)s1)[C@]12Cc3cnn(-c4ccc(F)cc4)c3C=C1CC[C@H](N(CCF)S(=O)(=O)c1ccc(F)cc1)C2 [Example 386, 4-fluoro-N-(2-fluoroethyl)-N-((4aS,6S)-1-(4-fluorophenyl)-4a-(5-(trifluoromethyl)thiazole-2-carbonyl)-4,4a,5,6,7,8-hexahydro-1H-benzo[f]indazol-6-yl)benzenesulfonamide]
≤ 100 nM | O=C(c1cc(C(F)(F)F)ccn1)[C@]12Cc3cnn(-c4ccc(F)cc4)c3C=C1CC[C@H](N(CCF)S(=O)(=O)c1ccc(F)cc1)C2 [Example 387, 4-fluoro-N-(2-fluoroethyl)-N-((4aS,6S)-1-(4-fluorophenyl)-4a-(4-(trifluoromethyl)picolinoyl)-4,4a,5,6,7,8-hexahydro-1H-benzo[f]indazol-6-yl)benzenesulfonamide]
≤ 100 nM | Cn1cnc(S(=O)(=O)N(CCC#N)[C@H]2CCC3=Cc4c(cnn4-c4ccc(F)cc4)C[C@]3(C(=O)c3ncc(C(F)(F)F)s3)C2)n1 [Example 388, N-(2-cyanoethyl)-N-((4aS,6S)-1-(4-fluorophenyl)-4a-(5-(trifluoromethyl)thiazole-2-carbonyl)-4,4a,5,6,7,8-hexahydro-1H-benzo[f]indazol-6-yl)-1-methyl-1H-1,2,4-triazole-3-sulfonamide]
≤ 100 nM | O=C(c1cc(F)ccn1)[C@]12Cc3cnn(-c4ccc(F)cc4)c3C=C1CC[C@H](N(CCF)S(=O)(=O)c1ccc(F)cc1)C2 [Example 389, 4-fluoro-N-(2-fluoroethyl)-N-((4aS,6S)-1-(4-fluorophenyl)-4a-(4-fluoropicolinoyl)-4,4a,5,6,7,8-hexahydro-1H-benzo[f]indazol-6-yl)benzenesulfonamide]
≤ 100 nM | O=C(c1cc(Cl)ccn1)[C@]12Cc3cnn(-c4ccc(F)cc4)c3C=C1CC[C@H](N(CCF)S(=O)(=O)c1ccc(F)cc1)C2 [Example 390, N-((4aS,6S)-4a-(4-chloropicolinoyl)-1-(4-fluorophenyl)-4,4a,5,6,7,8-hexahydro-1H-benzo[f]indazol-6-yl)-4-fluoro-N-(2-fluoroethyl)benzenesulfonamide]
≤ 100 nM | COCCOCCN([C@H]1CCC2=Cc3c(cnn3-c3ccc(F)cc3)C[C@]2(C(=O)c2ncc(C(F)(F)F)s2)C1)S(=O)(=O)c1ccc(F)cc1 [Example 391, 4-fluoro-N-((4aS,6S)-1-(4-fluorophenyl)-4a-(5-(trifluoromethyl)thiazole-2-carbonyl)-4,4a,5,6,7,8-hexahydro-1H-benzo[f]indazol-6-yl)-N-(2-(2-methoxyethoxy)ethyl)benzene-sulfonamide]
≤ 100 nM | Cn1cnc(S(=O)(=O)N(CCF)[C@H]2CCC3=Cc4c(cnn4-c4ccc(F)cc4)C[C@]3(C(=O)c3cc(F)ccn3)C2)n1 [Example 392, N-(2-fluoroethyl)-N-((4aS,6S)-1-(4-fluorophenyl)-4a-(4-fluoropicolinoyl)-4,4a,5,6,7,8-hexahydro-1H-benzo[f]indazol-6-yl)-1-methyl-1H-1,2,4-triazole-3-sulfonamide]
≤ 100 nM | Cn1cnc(S(=O)(=O)N(CCF)[C@H]2CCC3=Cc4c(cnn4-c4ccc(F)cc4)C[C@]3(C(=O)c3cc(Cl)ccn3)C2)n1 [Example 393, N-((4aS,6S)-4a-(4-chloropicolinoyl)-1-(4-fluorophenyl)-4,4a,5,6,7,8-hexahydro-1H-benzo[f]indazol-6-yl)-N-(2-fluoroethyl)-1-methyl-1H-1,2,4-triazole-3-sulfonamide]
≤ 100 nM | Cn1cc(S(=O)(=O)N(CCF)[C@H]2CCC3=Cc4c(cnn4-c4ccc(F)cc4)C[C@]3(C(=O)c3ncc(C(F)(F)F)s3)C2)nn1 [Example 394, N-(2-fluoroethyl)-N-((4aS,6S)-1-(4-fluorophenyl)-4a-(5-(trifluoromethyl)thiazole-2-carbonyl)-4,4a,5,6,7,8-hexahydro-1H-benzo[f]indazol-6-yl)-1-methyl-1H-1,2,3-triazole-4-sulfonamide]
